Measurements: patent publication US20240043410A1, “SULPHAMOYL UREA DERIVATIVES CONTAINING ALKYL-OXACYCLOALKYL MOIETY AND USES THEREOF” (NodThera Limited, priority 2020, published 2024)
≈ marks a conversion by molar mass, not a printed value. Counter-ions that a name gives are not always drawn.

What was measured:
[1] = system: IL-1β release upon NLRP3 activation in peripheral blood mononuclear cells (PBMC); assay: PBMC IC50 Determination Assay; type: cell-based; details: Homo sapiens; LPS-primed PBMC stimulated with ATP (5 mM) or nigericin (10 μM); IL-1β by ELISA (Protocol A) or HTRF (Protocol B); salts tested
Protocol: PBMC IC50 Determination Assay. The compounds of the present disclosure were tested for their inhibitory activity against IL-1β release upon NLRP3 activation in peripheral blood mononuclear cells (PBMC).
Protocol A. PBMC were isolated from buffy coats by density gradient centrifugation on Histopaque-1077 (Sigma, cat no. 10771). Isolated cells were seeded into the wells of a 96-well plate and incubated for 3 h with lipopolysaccharide (LPS). Following medium exchange, the compounds of the present disclosure were added (a single compound per well) and the cells were incubated for 30 min. Next, the cells were stimulated either with ATP (5 mM) or nigericin (10 μM) for 1 h and the cell culture media from the wells were collected for further analysis. The release of IL1-β into the media was determined by a quantitative detection of IL-1β in the media using an IL-1β enzyme-linked immunosorbent assay (ELISA) Ready-SET-Go!, eBioscience cat. No. 88-7261-88. Briefly, in a first step, high affinity binding plates (Corning, Costar 9018 or NUNC Maxisorp Cat No. 44-2404) were coated overnight at 4° C. with specific capture antibody included in the kit (anti-human IL-1β ref. 14-7018-68). Subsequently, plates were blocked with blocking buffer for 1 h at room temperature (rt) and after washing with a buffer (PBS with 0.05% Tween-20) incubated with protein standard and culture media. After 2 h of incubation at rt, plates were washed and incubated with biotinylated detection antibody included in the kit (anti-human IL-1β Biotin ref. 33-7110-68) for 1 h at rt. Plates were washed and incubated with HRP-streptavidin for 30 min at rt and washed again. The signal was developed after addition of 3,3′,5,5′-tetramethylbenzidine-peroxidase (TMB) until colour appeared and the reaction was stopped by 2 M H2SO4. A microplate spectrophotometer (BioTek) was used to detect signals with 450 nm. The detection range of IL-1β 3 ELISA was 2-150 ng/mL.
Protocol B. PBMC were isolated from buffy coats by density gradient centrifugation on Histopaque-1077 (Sigma, cat no. 10771). Isolated cells were seeded into the wells (280,000 cells/well) of a 96-well plate and incubated for 3 h with lipopolysaccharide (LPS, 1 μg/mL diluted 1000× from a 1 mg/mL stock solution). The compounds of the present disclosure were added (a single compound per well) and the cells were incubated for 30 min. Next, the cells were stimulated with ATP (5 mM final concentration diluted 20× from a 100 mM stock solution) for 1 h and the cell culture media from the wells were collected for further analysis. The release of IL-1β into the media was determined by quantitative detection of IL-1 in the media using HTRF®, CisBio cat. No. 62HIL1BPEH. Briefly, cell culture supernatant were dispensed directly into the assay plate containing antibodies labelled with the HTRF® donor and acceptor. A microplate spectrophotometer (BMG) was used to detect signals at 655 nm and 620 nm. The detection range of IL-1β HTRF® was […].

PAMPA permeability assay = type: in vitro ADME; details: 10 μM donor, PBS, 4 hours at room temperature, lecithin/dodecane membrane
Protocol: PAMPA Studies. The compounds of the present disclosure were tested in a PAMPA permeability assay to assess passive transcellular permeation.
Protocol. 0.2 mM working solution was prepared by diluting 10 mM stock solution with DMSO. 10 μM donor solution (5% DMSO) was prepared by diluting 20 μL of working solution with 380 μL PBS. 150 μL of 10 μM donor solutions to each well of the donor plate, whose PVDF membrane was precoated with 5 μL of 1% lecithin/dodecane mixture. Duplicates were prepared. 300 μL of PBS was added to each well of the PTFE acceptor plate. The donor plate and acceptor plate were combined and incubated for 4 hours at room temperature with shaking at 300 rpm. Preparation of TO sample: 20 μL donor solution was transferred to new well followed by the addition of 250 μL PBS (DF: 13.5), 130 μL ACN (containing internal standard) as TO sample. Preparation of acceptor sample: The plate was removed from incubator. 270 μL solution was transferred from each acceptor well and mixed with 130 μL ACN (containing internal standard) as acceptor sample. Preparation of donor sample: 20 μL solution was transferred from each donor well and mixed with 250 μL PBS (DF: 13.5), 130 μL ACN (containing internal standard) as donor sample. Acceptor samples and donor samples were all analysed by LC-MS/MS.
The measured PAMPA permeability values of compounds of the present disclosure are shown in Table B below (“$$$$” means >10 nm/“$$$” means ≥3 and <10 nm/s; “$$” means ≥1 and <3 nm/s; “$” means <1 nm/s).

[2] = Thermodynamic (equilibrium) solubility assay; type: physicochemical; details: aqueous buffer, thermodynamic from solid; 50 mM pH 7.4 phosphate buffer, 24 hours at room temperature
Protocol: Thermodynamic Solubility Studies. The compounds of the present disclosure were tested in an equilibrium solubility assay.
An appropriate amount of test and control compounds were weighed into lower chambers of Whatman Mini-UniPrep vials. To these were added 50 mM pH 7.4 phosphate buffer (450 μL) to get a super-saturated suspension. The samples were vortexed for at least 2 minutes. The Whatman Mini-UniPrep vials were shaken on a shaker for 24 hours at room temperature at 800 rpm. The vials were centrifuged for 20 minutes (eg. 4000 rpm). Samples were compressed to prepare filtrates for injection into HPLC system and the concentration calculated with a standard curve. […] As shown in the table, compounds of the present disclosure may display improved properties (e.g., over the compounds in the prior art), such as enhanced potency, solubility, membrane permeability and transporter efflux.

[3] = system: P-glycoprotein (P-gp) or breast cancer resistance protein (BCRP); assay: BCRP and P-gp Caco-2 permeability assay; type: in vitro ADME; details: efflux ratio, Caco-2 cells
Protocol: BCRP and P-gp Caco-2 Studies. The compounds of the present disclosure were tested in a Caco-2 permeability assay to assess whether they are actively transported out of cells by the efflux proteins, P-glycoprotein (P-gp) or breast cancer resistance protein (BCRP).
Caco-2 cells were used between passage numbers 40-60. Cells were seeded onto Millipore Multiscreen Transwell plates at […]. The cells were cultured in DMEM and media was changed every two or three days. On Day 18-22 the BCRP inhibition study was performed. Cell culture and assay incubations were carried out at 37° C. in an atmosphere of 5% CO2 with a relative humidity of 95%. On the day of the assay, the monolayers were prepared by rinsing both apical and basolateral surfaces twice with warmed (37° C.) transport buffer (Hanks Balanced Salt Solution [HBSS] containing 25 mM HEPES and 4.45 mM glucose, pH 7.4). Cells were then incubated with transport buffer containing test compound or positive control inhibitor (novobiocin) in both apical and basolateral compartments for 30 minutes at 37° C. For the inhibition studies a P-gp inhibitor or BCRP inhibitor was included on both sides of the monolayer for the equilibration period. The dosing solutions were prepared by diluting estrone 3-sulfate and test compound where applicable to give a final estrone 3-sulfate concentration of 1 μM (final DMSO concentration of 1% v/v). The fluorescent integrity marker lucifer yellow was prepared in receiver solutions in vehicle or test compound-containing transport buffer. After pre-incubation, the transport buffer was removed from both apical and basolateral compartments and replaced with the appropriate dosing or receiver solution. For assessment of B-A permeability, transport buffer was removed from the basolateral companion plate and replaced with dosing solution. Fresh transport buffer containing lucifer yellow and test compound where applicable (final DMSO concentration 1% v/v) was added to the apical compartment insert, which was then placed into the companion plate. After a 90-minute incubation the apical compartment inserts and the companion plates were separated and compartments sampled for analysis. Seven concentrations of compound (up to 100 μM) were assessed in addition to a vehicle control (0 μM). A triplicate determination of each concentration was performed. The positive control inhibitor was evaluated in parallel. [^3H]-estrone 3-sulfate was quantified by liquid scintillation counting to give disintegrations per minute (dpm). The integrity of the monolayer throughout the experiment was checked by monitoring lucifer yellow permeation using fluorimetric analysis. Corrected B-A apparent permeability (Papp) of probe substrate was calculated by subtracting its mean passive Papp determined in the presence of the highest concentration of positive control inhibitor (giving 100% transporter inhibition). The mean corrected B-A Papp from vehicle wells (0 μM test compound) was defined as 100% transport activity and this value was then used to calculate the percentage control transport activity for all other test compound concentrations. Percentage control transport activity was plotted against test compound concentration and fitted to calculate an IC50 value.
The efflux ratio (ER) values of compounds of the present disclosure are shown in Table B below (“****” means <3; “***” 3≥ and <10; “**” means ≥10 and <30; “*” means ≥30).

Row | SMILES | IC50 [1] [nM] | PAMPA Pe (PAMPA permeability assay) | solubility thermodynamic at 24 h [2] [µg/mL] | Caco-2 ER [3]
1 | Cn1cc(N(CC2CCCCO2)S(=O)(=O)NC(=O)Nc2c3c(cc4c2CCC4)CCC3)cn1 (stereo not drawn) [Compound 6, Sodium [(1,2,3,5,6,7-hexahydro-s-indacen-4-yl)carbamoyl][(1-methyl-1H-pyrazol-4-yl)[(oxan-2-yl)methyl]sulfamoyl]azanide] | < 100 | $$$$ (“$$$$” means >10 nm/) | 3000 to 10000 | **** (“****” means <3)
2 | Cn1cc(N(CC2CCCO2)S(=O)(=O)NC(=O)Nc2c3c(cc4c2CCC4)CCC3)cn1 (stereo not drawn) [Compound 1] | < 100 | – | – | –
3 | Cn1cc(N(CCC2CCCO2)S(=O)(=O)NC(=O)Nc2c3c(cc4c2CCC4)CCC3)cn1 (stereo not drawn) [Compound 5, Sodium [(1,2,3,5,6,7-hexahydro-s-indacen-4-yl)carbamoyl][(1-methyl-1H-pyrazol-4-yl)[2-(oxolan-2-yl)ethyl]sulfamoyl]azanide] | 100 to 1000 | $$ (“$$” means ≥1 and <3 nm/s) | 3000 to 10000 | *** (“***” 3≥ and <10)
4 | Cn1cc(N(CC2CCOC2)S(=O)(=O)NC(=O)Nc2c3c(cc4c2CCC4)CCC3)cn1 (stereo not drawn) [Compound 4] | 100 to 1000 | $ (“$” means <1 nm/s) | 1000 to 3000 (≈ 2.18 to 6.53 mM) | ** (“**” means ≥10 and <30)
5 | Cn1cc(N(C[C@H]2C[C@H](O)CO2)S(=O)(=O)NC(=O)Nc2c3c(cc4c2CCC4)CCC3)cn1 [Compound 2B, 1-(1,2,3,5,6,7-Hexahydro-s-indacen-4-yl)-3-[[(2R,4S)-4-hydroxytetrahydro-furan-2-yl]methyl-(1-methylpyrazol-4-yl)sulfamoyl]urea, sodium salt] | 100 to 1000 | – | – | –
6 | Cn1cc(N(C[C@@H]2C[C@H](O)CO2)S(=O)(=O)NC(=O)Nc2c3c(cc4c2CCC4)CCC3)cn1 (relative stereo) [Compound 2A, Sodium ((1,2,3,5,6,7-hexahydro-s-indacen-4-yl)carbamoyl)(N-((cis-4-hydroxy-tetrahydrofuran-2-yl)methyl)-N-(1-methyl-1H-pyrazol-4-yl)sulfamoyl)amide] | < 100 | – | – | –
7 | Cn1cc(N(C[C@@H]2CCCO2)S(=O)(=O)NC(=O)Nc2c3c(cc4c2CCC4)CCC3)cn1 [Compound 1A, Sodium [(1,2,3,5,6,7-hexahydro-s-indacen-4-yl)carbamoyl][(1-methyl-1H-pyrazol-4-yl)({[(2S)-oxolan-2-yl]methyl})sulfamoyl]azanide] | < 100 | $$ (“$$” means ≥1 and <3 nm/s) | 3000 to 10000 | **** (“****” means <3)
8 | Cn1cc(N(C[C@H]2CCCO2)S(=O)(=O)NC(=O)Nc2c3c(cc4c2CCC4)CCC3)cn1 [Compound 1B, Sodium [(1,2,3,5,6,7-hexahydro-s-indacen-4-yl)carbamoyl][(1-methyl-1H-pyrazol-4-yl)({[(2R)-oxolan-2-yl]methyl})sulfamoyl]azanide] | < 100 | $$ (“$$” means ≥1 and <3 nm/s) | 1000 to 3000 | **** (“****” means <3)
9 | O=C(Nc1c2c(cc3c1CCC3)CCC2)NS(=O)(=O)N(C[C@@H]1CCCO1)c1cn[nH]c1 [Compound 8A, 1-(1,2,3,5,6,7-hexahydro-s-indacen-4-yl)-3-[1H-pyrazol-4-yl-[[(2S)-tetrahydrofuran-2-yl]methyl]sulfamoyl]urea] | < 100 | – | – | –
